Data: PMC4726189, “Blocking protein phosphatase 2A signaling prevents endothelial-to-mesenchymal transition and renal fibrosis: a peptide-based drug therapy” (Scientific Reports, 2016)
Each block holds one compound with its values, some of them ahead of it.

Experiments:
PP2A [1] = details: inhibition of PP2A by okadaic acid; cited from earlier work
Text: The vast majority of biological processes, including renal fibrosis, are regulated by the balance between the activities of kinases and phosphatases. The significance of kinases has been intensively discussed in kidney disease for decades, however, the roles of phosphatases remain poorly understood. Protein phosphatase 2A (PP2A) is a ubiquitously expressed protein serine/threonine phosphatase that accounts for a large fraction of phosphatase activity in eukaryotic cells. As a heterotrimer, PP2A is composed of three subunits: a catalytic C subunit (PP2Ac), a structural A subunit (PP2Aa) ...

occludin = test: Serine/threonine phosphorylation of occludin in immunoprecipitates from TGF-β1-treated HUVECs; assay type: cell-based, human; details: n ≥ 3
Description: (§1) Human umbilical vein endothelial cells (HUVECs, ATCC) were cultured in RPMI-1640 (Gibco) supplemented with 10% fetal bovine serum (FBS, HyClone). When 30% confluent, cells were cultured in serum-free medium before recombinant human TGF-β1 (10 ng/ml; Peprotech) treatment. In some experiments, cells were pretreated with PP2A inhibitor OA (10 nM; Sigma) for 1 h before the addition of TGF-β1. For all cell stimulations, n ≥ 3 independent experiments were performed.
Cell lysates were centrifuged at 12,000g for 30 min at 4 °C. Approximately 1 mg of each lysate was incubated overnight at 4 °C with 2 μg of anti-occludin, anti-PP2Ac or IgG antibody (a negative control), followed by incubation with Protein A/G-Agarose for 1 hr to capture immunoprecipitates. Bead complexes were washed four times in lysis buffer and then resuspended in 2 × SDS buffer and heated for 10 min at 90 °C. Lysates were electrophoresed, transferred to PVDF filters, and subsequently immunoblotted with antibodies.

HUVECs [2] = test: TGF-β1-induced EndMT in HUVECs, western blot of VE-cadherin and α-SMA; assay type: cell-based, human; details: n ≥ 3
Description: as §1
Renal tissues or cells were harvested and centrifuged at 12,000 g to remove cell debris. Protein concentration was measured using a BCA assay kit (Pierce). Eighty micrograms of protein was subjected to SDS-PAGE and transferred onto polyvinylidene difluoride membranes. After transfer, the membranes were blocked and blotted routinely with antibodies against VE-cadherin (BD Biosciences), α-SMA (Abcam), collagen1 (Abcam), PP2Ac (Cell Signaling Technology), occludin (Invitrogen), P-threonine/P-serine (Santa Cruz), nitrotyrosine (Cayman), acetylated-lysine (Cell Signaling Technology), phosphotyrosine (PY-20,Biolgend), PP2A,C subunit, demethylated (Millipore), vimentin (Boster) and CD31 (Proteintech). The immunolabeled proteins were detected by enhanced chemiluminescence (Pierce).The density of the bands was analyzed by Quantity One software (Bio-Rad).

Caco-2 Cells = details: cited from earlier work
Text: (§2) Therefore, blocking PP2Ac Tyr127 nitration is considered a potential therapeutic approach. […] Peptide-based drugs have garnered much attention because of their high potencies of action and relatively few off-target side-effects[52][53].

PP2A [3] = details: cited from earlier work
Text: as §2

HUVECs [4] = test: Cellular uptake of FITC-labeled peptide in HUVECs; assay type: cell-based, human; details: fluorescence, n=3
Description: To further confirm the hypothesis, PP2Ac mimic peptides (Y127WT,Y130WT,Y265WT, Y267WT,Y284WT) were designed to assess the significance of Tyr127 and other Tyr sites on TGF-β1-driven EndMT. To enhance the penetration of synthetic peptides, a cell-permeable peptide transactivator of transcription (TAT) was used[20][21]. The conjugated peptide TAT-Y127WT was labeled with fluorescein isothiocyanate (FITC) and analyzed for cellular uptake. […] Thus, at the dose of 10 μM, we investigated the anti-EndMT effects of TAT-Y127WT compared with the other four peptides.
(§3) Figure S2. The penetration and cytotoxicity of TAT-Y127WT to HUVECs.
(§4) HUVECs were incubated with various concentrations (0,1,5,10,20,or 50μM) of TAT-Y127WT. Cytotoxicity was measured with the CCK-8 assay. (c)
(§5) Immunofluorescence distribution of TAT-Y127WT and cell morphology. Nuclei were counterstained with DAPI (blue). n=3. Scale bars, 20μm.
(§6) Supplementary Methods: Mass Spectrometry Experiments
Protein Digestion-The protein bands were digested according to an in-gel digestion procedure. The gels were dried in a vacuum centrifuge. Briefly, the in-gel proteins were reduced with dithiothreitol (10 mM DTT/100 mM NH4HCO3 ) for 30 min at 56°C, then alkylated with iodoacetamide (200 mM IAA/100 mM NH4HCO3) in the dark at room temperature for 30 minutes. Gel pieces were briefly rinsed with 100 mM NH4HCO3 and ACN. […]

[5] = Whole-body and ex vivo organ fluorescence imaging of FITC-labeled peptide in mice; design: species or system C57/B mice
Description: FITC-loaded peptides were injected through the tail vein or intraperitoneally administered into C57/B mice at a dose of 5 nmol/g of body weight. Whole body fluorescence imaging was performed using an in vivo imaging system (IVIS Spectrum, Caliper, USA) at 0, 0.5, 4 or 24 h post-injection. Subsequently, the mice were sacrificed, and their organs such as the liver, spleen, kidneys, heart, and lung were excised and subjected to ex vivo fluorescence imaging. At the same time, 1 mL of blood was drawn from the retro-orbital sinus after injection at different time points.

HUVECs [6] = test: Cytotoxicity to HUVECs, CCK-8 assay; assay type: cell-based, human; details: approximately 5–10 μM (0, 1, 5, 10, 20 or 50 μM tested), n=3
Description: as §3, §4, §5, §6
Protein Digestion-The protein bands were digested according to an in-gel digestion procedure. The gels were dried in a vacuum centrifuge. Briefly, the in-gel proteins were reduced with dithiothreitol (10 mM DTT/100 mM NH4HCO3 ) for 30 min at 56°C, then alkylated with iodoacetamide (200 mM IAA/100 mM NH4HCO3) in the dark at room temperature for 30 minutes. Gel pieces were briefly rinsed with 100 mM NH4HCO3 and ACN. Gel pieces were digested overnight in 12.5 ng/μl trypsin in 25 mM NH4HCO3. The peptides were extracted three times with 60% ACN/0.1% TFA.
The extracts were pooled and dried completely by a vacuum centrifuge.
Identification of the Modification Sites-Experiments were performed on a Q Exactive mass spectrometer that was coupled to Easy nLC (Proxeon Biosystems, now Thermo Fisher Scientific). Approximately 3 μl of the sample was injected for nanoLC-MS/MS analysis. The peptide mixture (1 μg) was loaded onto the C18-reversed phase column
(1 picture or pasted object on this page, not shown here)

[7] = OA 10 nM for 1 h before TGF-β1 10 ng/ml
[8] = FITC-labeled peptide, tail vein injection, ex vivo organ imaging at different time points

Description for UUO mice: Mice aged 6–8 weeks were grouped as sham-operated, UUO, UUO +TAT-Y127WT and UUO + TAT-Y127Scr and tail vein injected 1d before surgery. To perform UUO surgery, mice were anesthetized with ketamine hydrochloride (80 mg/kg body weight, intraperitoneally) before surgery and the left kidney was exposed through a flank incision and the left ureter tied off at the level of the lower pole of the kidney with two 4.0 silk ties. All mice were euthanized at the end of the experiments after obstruction, and some kidney tissues were fixed with 4% paraformaldehyde. The remainder was frozen in liquid nitrogen for later use.
Four-micrometer-thick paraffin sections were incubated with primary antibodies overnight at 4 °C and were then incubated with biotinylated goat anti-rabbit IgG or goat anti-mouse IgG for 45 min followed by diaminobenzidine (DAKO) staining. All sections were examined under a light microscope (Olympus BX-50) and digitized with a high-resolution camera. For immunofluorescence studies, after incubated with primary antibody, sections (including serial sections) were incubated with FITC- or CY3-conjugated goat antibody (Jackson ImmunoResearch) for 45 min at 37 °C and then counterstained with DAPI (Vector Laboratories) and analyzed by confocal laser scanning microscopy. 3D reconstructed technology was based on confocal laser-scanning microscopy and analyzed by the software (LAS-AF-Lite 2.6.3). PTC density was analyzed as described with some modifications[56].

Compound: C=C1[C@@H](O)[C@@H]2O[C@]3(CC[C@H](/C=C/[C@@H](C)[C@@H]4CC(C)=C[C@@]5(O[C@H](C[C@@](C)(O)C(=O)O)CC[C@H]5O)O4)O3)CC[C@H]2O[C@@H]1[C@@H](O)C[C@H](C)[C@H]1O[C@@]2(CCCCO2)CC[C@H]1C [OA, okadaic acid, reference compound]
effect of PP2A on thrombin- or nocodazole-induced changes in EC cytoskeleton (PP2A [1]): abolished | TGF-β1-induced decrease of phosphorylated serine and threonine residues in occludin immunoprecipitates (occludin; pretreatment with OA 10 nM for 1 h): significantly dampened | VE-cadherin expression (HUVECs [2]; [7]): maintained | α-SMA expression induced by TGF-β1 (HUVECs [2]; [7]): markedly attenuated

Compound: TPDYFL
acetaldehyde-induced tight junction disruption and barrier dysfunction (Caco-2 Cells): prevented | PP2A translocation in cardiac myocytes (PP2A [3]): attenuate

cell transduction (HUVECs [4]; 10 μM): effectively transduces cells | cell penetration (HUVECs [4]; FITC-labeled peptide, approximately 5–10 μM): efficient cell penetration | time to disappearance of the fluorescence signal after injection ([5]; FITC-labeled peptide 5 nmol/g intravenously, whole-body imaging at 0, 0.5, 4, 24 h and blood samples (n = 6)): ≤ 24 h | fluorescence in heart and lung [5, 8]: small signal | fluorescence in kidney and liver [5, 8]: strongly detected | fluorescence in spleen [5, 8]: no signal
Compound: ITQVYGFYD [TAT-Y127WT, mimic peptide derived from PP2Ac conjugating a cell penetrating peptide (CPP: TAT)]
cytotoxicity to HUVECs (HUVECs [6]): low cytotoxicity | density of peritubular capillaries (UUO mice; 5 nmol/g per day, CD31+ PTC numbers per visual field, n = 8): preserved density | number of CD31+/α-SMA+ areas in the interstitium (EndMT level) (UUO mice; 5 nmol/g per day, confocal microscopy, n = 8): dramatically decreased | excessive extracellular matrix (ECM) production, α-SMA and vimentin deposition (UUO mice; 5 nmol/g per day, immunohistochemical staining, n = 8): attenuated | PP2Ac nitration (UUO mice; administration of the peptide): significantly reduces | serine and threonine phosphorylation of occludin (occludin; TGF-β1, 72 h, compared with TAT-Y127Scr treatment): significantly increased | potency to inhibit TGF-β1-induced VE-cadherin decrease and α-SMA increase (HUVECs [2]; peptide 10 μM, TGF-β1, 72 h, compared with the other four peptides): higher potency | increase of α-SMA (HUVECs [2]; pretreatment with peptide, TGF-β1, 72 h): inhibited
